Measured values taken from ChEMBL document CHEMBL1146508, “Cyclonellin, a new cyclic octapeptide from the marine sponge Axinella carteri” (J Nat Prod, 2004).
Active and inactive are the calls of the source. The rule behind the calls is not given here. Peptide text beside a SMILES is read from it.

Assays:
OVCAR-3 = test: Cytotoxicity against human OVCAR-3 cells at 50 ug/mL; type: functional, cell-based
COLO 205 = test: Cytotoxicity against human COLO205 cells at 50 ug/mL; type: functional, cell-based

Structure (SMILES): C[C@@H]1NC(=O)[C@H]([C@@H](C)O)NC(=O)[C@H](Cc2ccc(O)cc2)NC(=O)[C@@H]2CCCN2C(=O)[C@H](Cc2ccc(O)cc2)NC(=O)[C@H](CCCNC(=N)N)NC(=O)[C@@H]2CCCN2C(=O)[C@H](CC(N)=O)NC1=O (cyclo(ANPRYPYT))
- Activity (OVCAR-3): inactive
- Activity (COLO 205): inactive
